Drawing on US10344039B2, “Macrocyclic spirocarbamate derivatives as factor XIa inhibitors, pharmaceutically acceptable compositions and their use” (MERCK SHARP & DOHME CORP., priority 2015, dated 2019), this text covers Ki for 29 molecules.

Some results are limits rather than exact numbers.

For the assay, the target named is T1, purified human Factor XIa (Homo sapiens, UniProt P03951).
T1 construct: purified human Factor XIa; purchased Sekisui Diagnostics
T1 sequence (P03951 388-625 limits assumed): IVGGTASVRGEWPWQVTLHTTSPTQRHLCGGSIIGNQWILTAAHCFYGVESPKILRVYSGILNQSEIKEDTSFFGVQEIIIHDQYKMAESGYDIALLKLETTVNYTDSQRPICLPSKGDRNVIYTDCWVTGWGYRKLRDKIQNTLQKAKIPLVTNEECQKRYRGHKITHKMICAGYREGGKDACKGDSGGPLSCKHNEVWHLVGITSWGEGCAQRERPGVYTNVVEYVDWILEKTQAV
T1 sequence (P03951 19-387 partner limits assumed): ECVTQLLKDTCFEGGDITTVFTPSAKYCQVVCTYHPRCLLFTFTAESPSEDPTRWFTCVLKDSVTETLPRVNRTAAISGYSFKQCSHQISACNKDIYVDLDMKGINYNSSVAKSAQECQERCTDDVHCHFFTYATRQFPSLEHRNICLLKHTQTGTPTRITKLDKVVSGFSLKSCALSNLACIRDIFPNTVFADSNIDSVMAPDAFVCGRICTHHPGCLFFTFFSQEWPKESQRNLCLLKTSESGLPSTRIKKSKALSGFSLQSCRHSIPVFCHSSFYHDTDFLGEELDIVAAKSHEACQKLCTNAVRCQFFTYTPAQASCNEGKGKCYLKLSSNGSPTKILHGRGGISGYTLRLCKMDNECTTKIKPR
As to the kind of experiment: Factor XIa Assay. It is filed as biochemical. The settings on record: purified human Factor XIa 40 pM; substrate Z-Gly-Pro-Arg-AFC 100 μM; 50 mM HEPES pH 7.4; read-out: Hu FXIa Ki. On the procedure: The effectiveness of a compound of the present invention as an inhibitor of Coagulation Factor XIa can be determined using a relevant purified serine protease, and an appropriate synthetic substrate. The rate of hydrolysis of the chromogenic or fluorogenic substrate by the relevant serine protease was measured both in the absence and presence of compounds of the present invention. Assays were conducted at room temperature or at 37° C. […] A decrease in the rate of fluorescence change in the presence of inhibitor is indicative of enzyme inhibition. Such methods are known to one skilled in the art. The results of this assay are expressed as the inhibitory constant, Ki.
Factor XIa determinations were made in 50 mM HEPES buffer at pH 7.4 containing 150 mM NaCl, 5 mM CaCl2, and 0.1% PEG 8000 (polyethylene glycol; JT Baker or Fisher Scientific). Determinations were made using purified human Factor XIa at a final concentration of 40 pM (Sekisui Diagnostics) and he synthetic substrate, Z-Gly-Pro-Arg-AFC, TFA salt (Sigma #C0980) at a concentration of 100 μM.
Activity assays were performed by diluting a stock solution of substrate at least tenfold to a final concentration ≤0.1 Km into a solution containing enzyme or enzyme equilibrated with inhibitor. Times required to achieve equilibration between enzyme and inhibitor were determined in control experiments. Initial velocities of product formation in the absence (Vo) or presence of inhibitor (Vi) were measured. Assuming competitive inhibition, and that unity is negligible compared Km/[S], [I]/e, and [I]/e (where [S], [I], and e respectively represent the total concentrations, of substrate, inhibitor and enzyme), the equilibrium constant (Ki) for dissociation of the inhibitor from the enzyme can be obtained from the dependence of Vo/Vi on [I] shown in the following equation. Vo/Vi=1+[I]/Ki
The activities shown by this assay indicate that the compounds of the invention may be therapeutically useful for treating or preventing various cardiovascular and/or cerebrovascular thromboembolic conditions in patients suffering from unstable angina, acute coronary syndrome, refractory angina, myocardial infarction, transient ischemic attacks, atrial fibrillation, stroke such as thrombotic stroke or embolic stroke, venous thrombosis, coronary and cerebral arterial thrombosis, cerebral and pulmonary embolism, atherosclerosis, deep vein thrombosis, disseminated intravascular coagulation, and reocclusion or restenosis of recanalized vessels. The Ki values measured for each of the example compounds of the invention using this assay are reported in the tables above (as “Hu FXIa Ki (nM)”).
One may read the Ki as a measure of affinity in units of concentration, obtained from inhibition or displacement. With `COC(=O)Nc1ccc2c(c1)NC(=O)CCCC[C@H](C(=O)N1CC[C@@]3(C1)OC(=O)Nc1ccc(Cl)cc13)c1nc-2c[nH]1` (single isomer, unassigned) [Example 1b], the Ki came out at 0.258 µM.
The value for `O=C1CCCC[C@@H](C(=O)N2CCC[C@@]3(C2)OC(=O)Nc2ccc(Cl)cc23)c2nc(c[nH]2)-c2ccc(F)cc2N1` (single isomer, unassigned) [Example 2a] was 0.268 µM; that for `O=C1CCCC[C@H](C(=O)N2CCC[C@@]3(C2)OC(=O)Nc2ccc(Cl)cc23)c2nc(c[nH]2)-c2ccc(F)cc2N1` (single isomer, unassigned) [Example 2b] was over 5 µM; that for `COC(=O)Nc1ccc2c(c1)NC(=O)CCCC[C@H](C(=O)N1CCC[C@@]3(C1)OC(=O)Nc1ccc(Cl)c(F)c13)c1nc-2c(C)[nH]1` (single isomer, unassigned) [Example 12a] was 0.471 µM.
With `COC(=O)Nc1ccc2c(c1)NC(=O)C(C)CCCC(C(=O)N1CCC[C@@]3(C1)OC(=O)Nc1ccc(Cl)cc13)c1cc-2ccn1` (single isomer, unassigned) [Example 15b], the inhibitory constant (Ki) was determined as 0.749 µM.
Turning to `COC(=O)Nc1ccc2c(c1)NC(=O)C(C)CCCC(C(=O)N1CCC[C@@]3(C1)OC(=O)Nc1ccc(Cl)cc13)c1cc-2ccn1` (single isomer, unassigned) [Example 15c], the Ki amounted to 1.76 µM.
With `COC(=O)Nc1ccc2c(c1)NC(=O)C(C)CCCC(C(=O)N1CCC[C@@]3(C1)OC(=O)Nc1ccc(Cl)cc13)c1cc-2ccn1` (single isomer, unassigned) [Example 15d], the Ki is over 5 µM.
With `Nc1ccc2c(c1)NC(=O)CC/C=C\C[C@H](C(=O)N1CCC[C@@]3(C1)OC(=O)Nc1ccc(Cl)c(F)c13)c1cc-2ccn1` (single isomer, unassigned) [Example 20b], the inhibition constant Ki is over 0.875 µM.
The value for `COC(=O)Nc1ccc2c(c1)NC(=O)CCCC[C@H](C(=O)N1CC[C@@]3(C1)OC(=O)Nc1ccc(Cl)c(F)c13)c1cccc-2n1` (single isomer, unassigned) [Example 23a] was over 0.875 µM; that for `CCOC(=O)C1CCCCC(C(=O)N2CCC[C@@]3(C2)OC(=O)Nc2ccc(Cl)c(F)c23)c2nc(c[nH]2)-c2ccc(NC(=O)OC)cc2N1` (single isomer, unassigned) [Example 32a] was 0.143 µM; that for `CCOC(=O)C1CCCCC(C(=O)N2CCC[C@@]3(C2)OC(=O)Nc2ccc(Cl)c(F)c23)c2nc(c[nH]2)-c2ccc(NC(=O)OC)cc2N1` (single isomer, unassigned) [Example 32c] was 0.536 µM.
As for `CCOC(=O)C1CCCCC(C(=O)N2CCC[C@@]3(C2)OC(=O)Nc2ccc(Cl)c(F)c23)c2nc(c[nH]2)-c2ccc(NC(=O)OC)cc2N1` (single isomer, unassigned) [Example 32d], the Ki was over 0.875 µM.
Regarding `CCOC(=O)C1CCCCC(C(=O)N2CCC[C@@]3(C2)OC(=O)Nc2ccc(Cl)c(F)c23)c2cc(ccn2)-c2cc(F)ccc2N1` (single isomer, unassigned) [Example 34a], the Ki stood at 0.628 µM.
For `CCOC(=O)C1CCCCC(C(=O)N2CCC[C@@]3(C2)OC(=O)Nc2ccc(Cl)c(F)c23)c2cc(ccn2)-c2cc(F)ccc2N1` (single isomer, unassigned) [Example 34b] the value was over 0.875 µM.
The value for `CCOC(=O)C1CCCCC(C(=O)N2CCC[C@@]3(C2)OC(=O)Nc2ccc(Cl)c(F)c23)c2cc(ccn2)-c2cc(F)ccc2N1` (single isomer, unassigned) [Example 34c] was 0.196 µM.
The value for `CCOC(=O)C1CCCCC(C(=O)N2CCC[C@@]3(C2)OC(=O)Nc2ccc(Cl)c(F)c23)c2cc(ccn2)-c2cc(F)ccc2N1` (single isomer, unassigned) [Example 34d] was over 0.875 µM; that for `O=C1Nc2ccc(Cl)c(F)c2[C@@]2(CCCN(C(=O)C3CCCCC(C(=O)O)Nc4ccc(F)cc4-c4ccnc3c4)C2)O1` (single isomer, unassigned) [Example 35a] was over 0.875 µM; that for `O=C1Nc2ccc(Cl)c(F)c2[C@@]2(CCCN(C(=O)C3CCCCC(C(=O)O)Nc4ccc(F)cc4-c4ccnc3c4)C2)O1` (single isomer, unassigned) [Example 35b] was over 0.875 µM.
Consider `CCOC(=O)C1CCCCC(C(=O)N2CC[C@@]3(C2)OC(=O)Nc2ccc(Cl)c(F)c23)c2cc(ccn2)-c2cc(F)ccc2N1` (single isomer, unassigned) [Example 36a], for which the Ki is over 0.875 µM.
The value for `CCOC(=O)C1CCCCC(C(=O)N2CC[C@@]3(C2)OC(=O)Nc2ccc(Cl)c(F)c23)c2cc(ccn2)-c2cc(F)ccc2N1` (single isomer, unassigned) [Example 36b] was over 0.875 µM.
For the molecule `O=C1Nc2ccc(Cl)c(F)c2[C@@]2(CCN(C(=O)C3CCCCC(C(=O)O)Nc4ccc(F)cc4-c4ccnc3c4)C2)O1` (single isomer, unassigned) [Example 37a], the inhibitory constant (Ki) was over 0.875 µM.
The value for `O=C1Nc2ccc(Cl)c(F)c2[C@@]2(CCN(C(=O)C3CCCCC(C(=O)O)Nc4ccc(F)cc4-c4ccnc3c4)C2)O1` (single isomer, unassigned) [Example 37b] was over 0.875 µM; that for `COC(=O)Nc1ccc2c(c1)NC(=O)CCCC[C@H](C(=O)N1CCC[C@@]3(C1)OC(=O)Nc1ccc(Cl)cc13)c1nc-2c[nH]1` [Example 3b, methyl ((S,Z)-9-((R)-6-chloro-2-oxo-1,2-dihydrospiro[benzo[d][1,3]oxazine-4,3′-piperidine]-1′-carbonyl)-4-oxo-1^1H-3-aza-1(4,2)-imidazola-2(1,2)-benzenacyclononaphane-2^4-yl)carbamate] was 0.065 µM; that for `O=C1CCCC[C@H](C(=O)N2CC[C@@]3(C2)OC(=O)Nc2ccc(Cl)cc23)c2nc(c[nH]2)-c2ccc(F)cc2N1` [Example 5a, (R)-6-chloro-1′-((S,Z)-2^4-fluoro-4-oxo-1^1H-3-aza-1(4,2)-imidazola-2(1,2)-benzenacyclononaphane-9-carbonyl)spiro[benzo[d][1,3]oxazine-4,3′-pyrrolidin]-2(1H)-one] was over 8.75 µM.
Take `COC(=O)Nc1ccc2c(c1)NC(=O)CCCC[C@H](C(=O)N1CCC[C@@]3(C1)OC(=O)Nc1ccc(Cl)cc13)c1nc-2c(Cl)[nH]1` [Example 7b, methyl ((S,Z)-1^5-chloro-9-((R)-6-chloro-2-oxo-1,2-dihydrospiro[benzo[d][1,3]oxazine-4,3′-piperidine]-1′-carbonyl)-4-oxo-1^1H-3-aza-1(4,2)-imidazola-2(1,2)-benzenacyclononaphane-2^4-yl)carbamate]: the Ki was 1.83 µM.
Consider `COC(=O)Nc1ccc2c(c1)NC(=O)CCCC[C@H](C(=O)N1CC[C@@]3(C1)OC(=O)Nc1ccc(Cl)c(F)c13)c1nc-2c(C)[nH]1` [Example 13a, methyl ((S,Z)-9-((R)-6-chloro-5-fluoro-2-oxo-1,2-dihydrospiro[benzo[d][1,3]oxazine-4,3′-pyrrolidine]-1′-carbonyl)-1^5-methyl-4-oxo-1^1H-3-aza-1(4,2)-imidazola-2(1,2)-benzenacyclononaphane-2^4-yl)carbamate], for which the Ki was 0.195 µM.
Turning to `COC(=O)Nc1ccc2c(c1)NC(=O)[C@H](C)CCC[C@H](C(=O)N1CCC[C@@]3(C1)OC(=O)Nc1ccc(Cl)c(F)c13)C1=NC=C2O1` [Example 14b, methyl ((5R,9S)-9-((R)-6-chloro-5-fluoro-2-oxo-1,2-dihydrospiro[benzo[d][1,3]oxazine-4,3′-piperidine]-1′-carbonyl)-5-methyl-4-oxo-3-aza-1(5,2)-oxazola-2(1,2)-benzenacyclononaphane-2^4-yl)carbamate], the Ki came out at 0.217 µM.
Consider `COC(=O)Nc1ccc2c(c1)NC(=O)CCCCC[C@H](C(=O)N1CCC[C@@]3(C1)OC(=O)Nc1ccc(Cl)cc13)c1cc-2ccn1` [Example 16a, methyl ((S)-10-((R)-6-chloro-2-oxo-1,2-dihydrospiro[benzo[d][1,3]oxazine-4,3′-piperidine]-1′-carbonyl)-4-oxo-3-aza-1(4,2)-pyridina-2(1,2)-benzenacyclodecaphane-2^4-yl)carbamate], for which the inhibition constant Ki was over 0.875 µM.
As for `COC(=O)Nc1ccc2c(c1)NC(=O)CCCCC[C@@H](C(=O)N1CCC[C@@]3(C1)OC(=O)Nc1ccc(Cl)cc13)c1cc-2ccn1` [Example 16b, methyl ((R)-10-((R)-6-chloro-2-oxo-1,2-dihydrospiro[benzo[d][1,3]oxazine-4,3′-piperidine]-1′-carbonyl)-4-oxo-3-aza-1(4,2)-pyridina-2(1,2)-benzenacyclodecaphane-2^4-yl)carbamate], the inhibitory constant (Ki) is 0.284 µM.
